# Data from patent publication US5270206A, “Enzymatic resolution of endo-bicyclo[2.2.1]heptan-2-ol and derived pharmaceutical agents” (Pfizer Inc., priority 1992, dated 1993).
# Key:
# [1] = system: antigen-induced skin edema; assay: Inhibition of Skin Edema in Guinea Pigs Sensitized to Ovalbumin; type: in vivo, guinea pig; conditions: 32 mg/Kg oral, two guinea pigs, intradermal ovalbumin challenge one hour after dosing, read after twenty minutes
# Experimental: Four guinea pigs (Hartley, male, 350-400 g) were sensitized with anti-ovalbumin IgGI antibody. Two guinea pigs were orally dosed with 32 mg/Kg of the test compound and two other guinea pigs were dosed with vehicle (2% Tween-80). One-hour after dosing, each guinea pig was injected intraveneously with 1 ml of Evan Blue (7 mg/ml) and then his skin was challenged intradermally with 0.1 ml of ovalbumin (0.1%) or PBS. Twenty minutes after challenge, the skin was removed and skin edematous site (circular blue spots at challenge sites) was examined visually.
# [2] = target: PDEIV; assay: Inhibition of Pulmonary Phosphodiesterase (PDEIV); type: biochemical; conditions: guinea pig lung PDEIV, 1 μM [3H]-cAMP, 37° C., 10 minutes; read-out: IC50 (concentration inhibiting 50% of specific hydrolysis of [3H]cAMP to [3H]5'AMP)
# Experimental: Lung tissue from guinea pigs was placed in a homogenization buffer solution (20 mM Bistris, 5 mM 2-mercaptoethanol, 2 mM benzamidine, 2 mM EDTA, 50 mM sodium acetate, pH 6.5) at a concentration of 10 ml/gm of tissue. The tissue was homogenized using a Tekmar Tissumizer at full speed for 10 seconds. Phenylmethylsulfonyl fluoride (PMSF, 50 mM in 2-propanol) was added to the buffer immediately prior to homogenization to give a final PMSF concentration of 50 μM. The homogenate was centrifuged at 12,000×g for 10 minutes at 4° C. The supernatant was filtered through gauze and glass wool and then applied to a 17×1.5 cm column of DEAE-Sepharose CL-6B, pre-equilibrated with homogenization buffer, at 4° C. A flow rate of 1 ml/min was used. After the supernatant had passed through the column, the column is washed with a volume of homogenization buffer at least two times that of the supernatant. […] Fractions were saved based on specific PDEIV activity, determined by [3H]cAMP hydrolysis and the ability of a […]. […]
# The reaction tubes were shaken and placed in a water bath (37° C.) for 10 minutes, at which time the reaction was stopped by placing the tubes in a boiling water bath for 2 minutes. […] After vortexing, 1 ml of the elution was added to 3 ml Atomlight scintillation fluid in an appropriate vial, vortexed, and counted for [3H].
# Percent inhibition is determined by the formula: [formula] […]
# [3] = system: eosinophil migration into sensitized lung tissue; assay: Inhibition of eosinophil migration into sensitized lung tissue challenged with antigen in guinea pigs (EPO response in lung lavage); type: in vivo, guinea pig; conditions: Cavia porcellus, po, guinea pigs sensitized with anti-OA IgG1, dosed P.O., ovalbumin aerosol, lung lavage after 18 hours, read-out: ED50 (inhibition of specific EPO response due to antigen challenge)
# Experimental: Normal Hartley guinea pigs (300-350 grams) delivered from Charles River Laboratories were housed 5-7 days before sensitization. Guinea pigs were then sensitized with 0.5 mg/kg anti-OA IgGl or saline as control. After 48-72 hours, guinea pigs were dosed P.O. in groups of six animals each with compounds at up to 32 mg/kg using 2% Tween 80 as vehicle. After 1-1.5 hours the animals were injected i.p. with 5 mg/kg pyrilamine. Thirty minutes following pyrilamine administration, animals were exposed to 10 minutes of a 0.1% ovalbumin (OA) aerosol followed by a 15 minute cloud decay period in a Tri-R Airborne Infection Apparatus (Compression air flow=20 L/min, main air flow=8.4 L/min). Guinea pigs were removed from the apparatus and caged for 18 hours prior to sacrifice and the following lung lavage procedure. […]
# The aliquoted sample with Triton was diluted with 1 ml PBS/0.1% Triton buffer (pH 7.0). […] The O.D. of the mixture was measured at 490 nm, with background O.D. (blank tube) subtracted out.
# Duplicate O.D. readings were averaged to obtain a single value for each animal. Average O.D. +/- standard error is calculated using the six obtained values within each group of animals. Specific EPO response due to antigen challenge is calculated by: […]
# Percent inhibition of specific EPO response due to drug pretreatment is calculated by: [formula]
# [4] = system: phosphodiesterases prepared from cerebral cortices of rats; conditions: phosphodiesterases from rat cerebral cortices; noted at page 25 of W087/06576; cited from earlier work
compound,measurement,setting,value
"COc1ccc(C2CNC(=O)NC2)cc1O[C@H]1C[C@@H]2CC[C@H]1C2 (relative stereo) [5-(3-(exo-bicyclo[2.2.1]hept-2-yloxy)-4-methoxyphenyl)-3,4,5,6-tetrahydropyrimidin-2(1H)-one]",intensity and area of blue spots (skin edema) at antigen-challenged sites vs vehicle-dosed animals,[1],markedly reduced
same,IC50,[2],500 nM
same,ED50,[3],10 mg/kg
same,in vitro activity as an inhibitor of phosphodiesterases,[4],possesses in vitro activity as an inhibitor
